Molecules are shown by their SMILES. “Also recorded” adds a separate entry of the source. Like-named read-outs stand apart in the source and are kept apart here.

For data set [1], the system named is adult male Wistar rats. The experiment in a line: Intravenous cocaine self-administration under a multiple, alternating schedule of food reinforcement and cocaine self-administration. The class given is in vivo, rat.
Procedure: Adult male Wistar rats were trained under a multiple, alternating schedule of cocaine and food self-administration. This schedule consisted of alternating periods of cocaine access and food reinforcement. In some instances, as described further below, three doses of cocaine (0.125, 0.25, or 0.50 mg/kg/infusion) were tested. Rats were also periodically trained with saline substitution (cocaine extinction) and food extinction during the same session.
More specifically, adult male Wistar rats were implanted with chronic jugular catheters. Following recovery from surgery, the rats were trained to respond under a multiple, alternating schedule of food reinforcement and cocaine self-administration. Food-maintained responding was used to control for the non-specific motor effects of the various treatments. During the food component of the schedule, the stimulus light located above the food response lever was illuminated to indicate the availability of food reinforcement. […] A 25-second timeout followed the delivery of each food pellet. During this timeout, the stimulus light was darkened and responses on the food lever were counted but had no scheduled consequences. Responding on the other (cocaine) lever during the food component also had no scheduled consequences. […] Following 15 minutes of access to food, all stimulus lights in the chamber were darkened for a 1-minute timeout. Following the timeout, the stimulus light above the cocaine response lever was illuminated to indicate the availability of cocaine (0.125, 0.25, or 0.5 mg/kg/infusion). […] A 20-second timeout period followed each infusion. […] After 15 minutes of access to cocaine and a 1-minute timeout, the rats were again allowed 15 minutes access to the food component of the schedule. Access to food and cocaine alternated in this manner every 15 minutes during the two hour behavioral sessions so that each rat was exposed to food and cocaine for four 15-minute periods each. Each behavioral session began with 15 minutes access to either food or cocaine, and this alternated daily. Stable baselines of responding were established when the total number of cocaine and food presentations, as well as the number of presentations during each of the four exposures each session, varied less than 10% for three consecutive sessions. At least three different doses of cocaine (e.g., 0.125, 0.25, and 0.5 mg/kg/infusion) were tested. Rats were first trained to self-administer 0.25 mg/kg/infusion, which was the standard dose of cocaine used. When responding stabilized, the dose was changed to 0.125 or 0.5 mg/kg/infusion as appropriate.
Once stable baselines of responding were obtained, dose-response curves for the various compounds were individually generated for each rat. Rats were treated with each dose at least twice with a minimum of two days of baseline cocaine self-administration interspersed between each test. Each group of rats was tested with only two of the test compounds to minimize potential carryover effects.
The test system of data set [2] is smokers. The note with it: smoking cessation therapy; cited from earlier work.
For data set [3], the system named is adult male Wistar rats. Briefly: Cue-induced reinstatement of extinguished cocaine seeking. The class given is in vivo, rat. The note with it: for reinstatement of extinguished cocaine seeking: pretreatment, summary of the studies. From the text: Training to self-administer cocaine: In one model, rats were exposed to alternating 15-minute periods of access to cocaine self-administration and food reinforcement. Food was used to control for potential nonspecific, ataxis effects of the drugs and combinations. […] The other preclinical model that has been used is the cue-induced reinstatement of extinguished cocaine seeking model of relapse. In this model, rats are trained to self-administer cocaine and the ability of conditioned cues in the environment to reinstate extinguished responding is assessed and taken as a measure of relapse.
Cue-induced Reinstatement of Extinguished Cocaine Seeking: The experiments described herein were designed to investigate whether or not drug combinations identified as effective in reducing cocaine self-administration would also block the ability of conditioned cues to reinstate extinguished cocaine-seeking behavior. Adult male Wistar rats were implanted with chronic jugular catheters and trained to self-administer cocaine (0.25 mg/kg/infusion) by pressing one of the response levers in the experimental chamber (i.e., the “active” or “cocaine” lever) under a fixed-ratio […] schedule of reinforcement during daily 2-hour sessions conducted 5 days per week. At the start of each session, both levers were extended into the chamber and the stimulus light above the active lever was illuminated to indicate the availability of cocaine. […] A 20-second timeout period followed each infusion. The stimulus light above the active lever and the house light and tone compound stimulus were extinguished during the timeout period, and the light above the active lever was illuminated once the timeout ended. When responding on the active lever varied less than 20% for two consecutive days, the response requirement was increased to FR2. When similar stability was observed under the FR2 schedule or reinforcement, the response requirement was increased to the final ratio of four. The criteria for stable responding under the FR4 schedule of reinforcement was a minimum of 10 days of exposure to this schedule that concluded with at least three consecutive days when responding varied by less than 10%. […] Once stable cocaine self-administration was observed, rats were exposed to extinction; the rats were placed into the behavioral chambers, but responding on the “cocaine” (active) lever produced no programmed consequences. Extinction training continued until responding decreased to less than 20% of baseline self-administration. Then reinstatement testing commended. The rats were placed into the experimental chambers, both response levers were extended into the chamber, and the stimulus light above the “active” lever was illuminated as during self-administration training. […] Responding on the “active” lever during reinstatement testing was taken as, an index of cocaine-seeking behavior. Each experimental group consisted of […].

Data set [4] can be described thus: Pharmacokinetic interaction between cocaine, metyrapone and oxazepam (plasma concentrations, GCMS). The class given is in vivo, rat.
Procedure: Thirty minutes following the drug combination or vehicle injection, the rats received intravenous injections of cocaine (0.25 mg/kg/infusion) every 2 minutes for 1 hour. After the final injection of cocaine, blood was collected from the catheter for the analysis of cocaine and its metabolites ecgonine methyl ester and benzoylecgonine. […] All drug concentrations were determined using GCMS procedures.
For data set [5], the system named is rats. The note with it: pretreatment, literature; cited from earlier work.
Data set [6] can be described thus: Phase I single- and multiple-rising dose study: plasma pharmacokinetics. Set-up: species or system human. The note with it: in vivo; for change of half-lives at different doses or with repeated dosing / Tmax / half-life: human; for half-life: t1/2. From the text: Total daily doses were double these amounts on BID dosing days. Primary outcomes were safety and pharmacokinetics of MET, its active metabolite (metyrapol), and OX. Safety measures included vital signs, ECGs an standard safety labs. Cortisol and other HPA axis parameters were monitored closely throughout the study.
They were not seeking to quit smoking. […] Primary outcomes were safety and pharmacokinetics.

Data set [7] deals with male Wistar rats. The experiment in a line: Forced Swim Test (FST), animal model of depression.
[8] abbreviates: high dose, ip pretreatment, drug alone.
The mark [9] stands for this setting: low, ineffective dose, ip pretreatment, drug alone.
[10] abbreviates: pretreatment, summary of the studies.

Regarding `NCc1cc(=O)[nH]o1` [muscimol], the cocaine self-administration entry in data set [1] (setting [8]) is “reduced cocaine self-administration”; in data set [1] (setting [9]) it was “did not significantly affect”.

For the compound `CC(NC(C)(C)C)C(=O)c1cccc(Cl)c1` (centres unmarked) [bupropion], the “one year quit rate” value in data set [2] is reported as 15.5%.

In the case of `CCCCN(CC)c1nc(C)nc2c1c(C)cn2-c1c(C)cc(C)cc1C` [CP-154,526], the results for the cocaine self-administration result in data set [1] (setting [8]), in data set [1] (setting [9]) and in data set [1] (setting [10]) were “reduced cocaine self-administration”, “did not significantly affect” and “decrease cocaine self-administration”, respectively. In addition, the “reinstatement of extinguished cocaine seeking” value in data set [3] is “decrease”.

As for `COC(=O)[C@H]1[C@@H](OC(=O)c2ccccc2)C[C@@H]2CC[C@H]1N2C` [cocaine], in data set [4] (rats, presence of cocaine), the “effect on plasma concentrations of metyrapone or oxazepam” value is “did not affect the plasma concentrations of metyrapone or oxazepam”.

Turning to `Cc1nnc2n1-c1ccc(Cl)cc1C(c1ccccc1)=NC2` [alprazolam], the cocaine self-administration result was “reduced cocaine self-administration” in data set [1] (setting [8]); “did not significantly affect” in data set [1] (setting [9]); “decrease cocaine self-administration” in data set [1] (setting [10]); “reduced responding maintained by both food and cocaine” in data set [5]. Also, in data set [3], the “reinstatement of extinguished cocaine seeking” value is “decrease”.

With `c1cnc2cc3c(cc2n1)[C@@H]1CNC[C@H]3C1` [varenicline], the “one year quit rate” value in data set [2] is given as 22.5%.

What is called Tmax is the time from dosing to the highest level. The half-life is the time needed for the level to fall by half in the phase considered. Turning to `CC(C)(C(=O)c1cccnc1)c1cccnc1` [metyrapone], the cocaine self-administration result in data set [1] (setting [8]) was “reduced cocaine self-administration”; in data set [1] (setting [9]) it was “did not significantly affect”; in data set [1] (setting [10]) it was “decrease cocaine self-administration”; in data set [5] it was “significant dose-related decreases”. Also, the “cue-induced reinstatement of extinguished cocaine seeking” value in data set [3] (chronic, 50 mg/kg, ip, once per day for 14 days) is “reduced cocaine seeking to levels seen when only saline was delivered”. Also, the “reinstatement of extinguished cocaine seeking” value in data set [3] is given as “decrease”. The “influence on plasma concentrations of each other” value in data set [4] (rat, in vivo, ip) was “did not influence plasma concentrations of each other”. Moreover, in data set [6], the “change of half-lives at different doses or with repeated dosing” value is given as “did not change substantially”. The Tmax in data set [6] (Tmax) amounted to 1.5 h. In data set [6], this compound showed a half-life of 2.04 h. Besides, the “accumulation with repeated dosing” value in data set [6] was “Modest accumulation”. Besides, the immobility time entry in data set [7] (chronic, individual drug, Met50 group) is reported as “showed a lessening of immobility time”. In addition, the “group means of immobility versus vehicle (tolerance)” value in data set [7] (chronically treated groups, drug alone) was “equal to or exceeded the vehicle”.

Consider `O=C1Nc2ccc(Cl)cc2C(c2ccccc2)=NC1O` (centres unmarked) [oxazepam], for which the Tmax was 3.5 h in data set [6] (human plasma, 270 mg Metyrapone/12 mg Oxazepam, Day 1, median, n 6, read-out: Tmax); 3 h in data set [6] (human plasma, 270 mg Metyrapone/12 mg Oxazepam, Day 10, median, n 6, read-out: Tmax); 3 h in data set [6] (human plasma, 540 mg Metyrapone/24 mg Oxazepam, Day 1, median, n 6, read-out: Tmax); 3 h in data set [6] (human plasma, 540 mg Metyrapone/24 mg Oxazepam, Day 10, median, n 6, read-out: Tmax); 4 h in data set [6] (human plasma, 720 mg Metyrapone/24 mg Oxazepam, Day 1, median, n 6, read-out: Tmax); 3 h in data set [6] (human plasma, 720 mg Metyrapone/24 mg Oxazepam, Day 10, median, n 6, read-out: Tmax).

Regarding `CC(C)(c1cccnc1)C(O)c1cccnc1` (centres unmarked) [metyrapol], in data set [6], the “change of half-lives at different doses or with repeated dosing” value was “did not change substantially” and the half-life was 8.41 h. The time to peak (Tmax) in data set [6] (Tmax) was found to be 2 h.

Regarding `CC(=O)N1CCN(c2ccc(OCC3COC(Cn4ccnc4)(c4ccc(Cl)cc4Cl)O3)cc2)CC1` (centres unmarked) [ketoconazole], the cocaine self-administration result in data set [1] (setting [9]) is given as “no effect; also recorded: did not significantly affect”; in data set [1] (setting [10]), “decrease cocaine self-administration”; in data set [5] it was “reduced cocaine self-administration”. The “minimally effective dose that reduced cocaine self-administration by at least 50% without affecting food-maintained responding” value in data set [1] (rats) stood at 25 mg/kg. In addition, in data set [3], the “reinstatement of extinguished cocaine seeking” value is on record as “decrease”.

Values taken from US20190275058A1, “COMPOSITIONS AND METHODS FOR TREATING ADDICTION OR SUBSTANCE USE DISORDERS” (EMBERA NEUROTHERAPEUTICS, INC., priority 2016, published 2019).
